This assay deals with HPK1 (MAP4K1) (Homo sapiens, UniProt Q92918). The experiment in a line: FRET Assay for HPK1 (MAP4K1): one step binding assay, displacement of labeled tracer. The following applies: for inhibition at 1 µM: 1 μM compound; for inhibition at 1 µM / inhibition at 10 µM: FRET ratio 665/620, percent of control; for inhibition at 10 µM: 10 μM compound; for IC50: dose response curve, nonlinear regression. The essentials: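 TR-FRET tracer-displacement binding assay. GST-tagged HPK1 (10 nM) and Eu-anti-GST antibody (4 nM) were pre-incubated with compound on ice for 15 min in 50 mM HEPES pH 7.5, 10 mM MgCl2, 1 mM EGTA, 0.01% Brij-35 (3% DMSO final). Kinase Tracer 222 (20 nM) was then added for 1 h at room temperature. IC50 came from nonlinear regression of percent of control; percent inhibition was also given at 1.0 and 10.0 μM.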
Sequence of HPK1 (MAP4K1) (Q92918 whole entry): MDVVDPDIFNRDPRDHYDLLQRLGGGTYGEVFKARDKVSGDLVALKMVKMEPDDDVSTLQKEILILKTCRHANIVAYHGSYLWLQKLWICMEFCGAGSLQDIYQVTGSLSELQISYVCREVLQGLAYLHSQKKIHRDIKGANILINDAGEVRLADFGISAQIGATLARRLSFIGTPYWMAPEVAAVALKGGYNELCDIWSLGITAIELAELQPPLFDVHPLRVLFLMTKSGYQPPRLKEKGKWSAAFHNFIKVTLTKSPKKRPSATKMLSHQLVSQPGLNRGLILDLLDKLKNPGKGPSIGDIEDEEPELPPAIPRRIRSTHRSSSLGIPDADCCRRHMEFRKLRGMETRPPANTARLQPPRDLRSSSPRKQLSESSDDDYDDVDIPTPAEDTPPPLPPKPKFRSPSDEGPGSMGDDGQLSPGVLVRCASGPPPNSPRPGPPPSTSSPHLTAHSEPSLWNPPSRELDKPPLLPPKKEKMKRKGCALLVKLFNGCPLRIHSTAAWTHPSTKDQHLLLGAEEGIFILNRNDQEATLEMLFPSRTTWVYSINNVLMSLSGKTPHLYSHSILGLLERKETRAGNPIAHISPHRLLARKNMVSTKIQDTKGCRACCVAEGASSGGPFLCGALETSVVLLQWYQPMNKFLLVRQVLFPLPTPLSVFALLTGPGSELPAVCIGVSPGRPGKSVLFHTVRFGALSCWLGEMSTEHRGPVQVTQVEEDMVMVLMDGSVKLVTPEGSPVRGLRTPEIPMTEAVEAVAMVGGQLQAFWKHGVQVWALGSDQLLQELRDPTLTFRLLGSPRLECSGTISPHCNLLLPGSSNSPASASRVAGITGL

Bounds are passed on as bounds.

For orientation: inhibition means the share of the control response that was lost under treatment. What is called IC50 is the point on the concentration scale where inhibition reaches its midpoint. The low end stands for greater potency in that assay, the high end for weaker potency in that assay. Turning to `C/C(Nc1ncc(C)s1)=C1/C(=O)Nc2cnc(-c3cnccc3C)cc21` [Example 178, (Z)-5-(4-Methylpyridin-3-yl)-3-(1-((5-methylthiazol-2-yl)amino)ethylidene)-1H-pyrrolo[2,3-c]pyridin-2(3H)-one], the inhibition at 1 µM came to 68%, the inhibition at 10 µM is 77.8% and the IC50 is < 0.05 µM.

Regarding `C/C(Nc1cc(C)[nH]n1)=C1/C(=O)Nc2cnc(-c3cnccc3C)cc21` [Example 179, (Z)-3-(1-((5-Methyl-1H-pyrazol-3-yl)amino)ethylidene)-5-(4-methylpyridin-3-yl)-1H-pyrrolo[2,3-c]pyridin-2(3H)-one], the inhibition at 1 µM came out at 66.9%, the inhibition at 10 µM was found to be 77.6% and the concentration for half-maximal inhibition (IC50) is < 0.05 µM.

For `CCS(=O)(=O)n1nc(N/C(C)=C2\C(=O)Nc3cnc(-c4cnccc4C)cc32)cc1C` [Example 180, (Z)-3-(1-((1-(Ethylsulfonyl)-5-methyl-1H-pyrazol-3-yl)amino)ethylidene)-5-(4-methylpyridin-3-yl)-1H-pyrrolo[2,3-c]pyridin-2(3H)-one], the inhibition at 1 µM stood at 73%, the inhibition at 10 µM came out at 76.2% and the half-maximal inhibitory concentration (IC50) is < 0.05 µM.

Consider `C/C(Nc1cc(C)n(CC(C)(C)O)n1)=C1/C(=O)Nc2cnc(-c3cnccc3C)cc21` [Example 181, (Z)-3-(1-((1-(2-Hydroxy-2-methylpropyl)-5-methyl-1H-pyrazol-3-yl)amino)ethylidene)-5-(4-methylpyridin-3-yl)-1H-pyrrolo[2,3-c]pyridin-2(3H)-one], for which the inhibition at 1 µM stood at 76.8%, the inhibition at 10 µM came out at 80.8% and the IC50 was < 0.05 µM.

Take `CCn1nc(N/C(C)=C2\C(=O)Nc3cnc(-c4cnccc4C)cc32)cc1C` [Example 182, (Z)-3-(1-((1-Ethyl-5-methyl-1H-pyrazol-3-yl)amino)ethylidene)-5-(4-methylpyridin-3-yl)-1H-pyrrolo[2,3-c]pyridin-2(3H)-one]: the inhibition at 1 µM amounted to 78.8%, the inhibition at 10 µM is 73% and the 50% inhibitory concentration (IC50) is < 0.05 µM.

As to `C/C(Nc1cc(C)n(CCC(C)(C)O)n1)=C1/C(=O)Nc2cnc(-c3cnccc3C)cc21` [Example 183, (Z)-3-(1-((1-(3-Hydroxy-3-methylbutyl)-5-methyl-1H-pyrazol-3-yl)amino)ethylidene)-5-(4-methylpyridin-3-yl)-1H-pyrrolo[2,3-c]pyridin-2(3H)-one], the inhibition at 1 µM amounted to 72.5%, the inhibition at 10 µM came to 79.5% and the 50% inhibitory concentration (IC50) was < 0.05 µM.

With `C/C(Nc1cc(C)n(C[C@H](C)O)n1)=C1/C(=O)Nc2cnc(-c3cnccc3C)cc21` [Example 184, (S,Z)-3-(1-((1-(2-Hydroxypropyl)-5-methyl-1H-pyrazol-3-yl)amino)ethylidene)-5-(4-methylpyridin-3-yl)-1H-pyrrolo[2,3-c]pyridin-2(3H)-one], the inhibition at 1 µM was found to be 70.3%, the inhibition at 10 µM is 75.2% and the IC50 is < 0.05 µM.

For `C/C(Nc1cc(C)n(C(F)F)n1)=C1/C(=O)Nc2cnc(-c3cnccc3C)cc21` [Example 185, (Z)-3-(1-((1-(Difluoromethyl)-5-methyl-1H-pyrazol-3-yl)amino)ethylidene)-5-(4-methylpyridin-3-yl)-1H-pyrrolo[2,3-c]pyridin-2(3H)-one], the inhibition at 1 µM stood at 73.2%, the inhibition at 10 µM worked out at 73.9% and the 50% inhibitory concentration (IC50) was < 0.05 µM.

Turning to `C/C(Nc1cc(C)n(CC(C)C)n1)=C1/C(=O)Nc2cnc(-c3cnccc3C)cc21` [Example 186, (Z)-3-(1-((1-Isobutyl-5-methyl-1H-pyrazol-3-yl)amino)ethylidene)-5-(4-methylpyridin-3-yl)-1H-pyrrolo[2,3-c]pyridin-2(3H)-one], the inhibition at 1 µM turned out to be 70.9%, the inhibition at 10 µM was found to be 72.2% and the half-maximal inhibitory concentration (IC50) is < 0.05 µM.

As to `C/C(Nc1cnn(C)c1)=C1/C(=O)Nc2cnc(-c3cc(C#N)ccc3C)cc21` [Example 187, (Z)-4-Methyl-3-(3-(1-((1-methyl-1H-pyrazol-4-yl)amino)ethylidene)-2-oxo-2,3-dihydro-1H-pyrrolo[2,3-c]pyridin-5-yl)benzonitrile], the inhibition at 1 µM was found to be 66.4% and the inhibition at 10 µM is 19.6%.

In the case of `C/C(Nc1cc(C)n(C[C@@H](C)O)n1)=C1/C(=O)Nc2cnc(-c3cnccc3C)cc21` [Example 188, (R,Z)-3-(1-((1-(2-Hydroxypropyl)-5-methyl 1H-pyrazol-3-yl)amino)ethylidene)-5-(4-methylpyridin-3-yl)-1H-pyrrolo[2,3-c]pyridin-2(3H)-one], the inhibition at 1 µM came out at 71%, the inhibition at 10 µM was found to be 76% and the concentration for half-maximal inhibition (IC50) is < 0.05 µM.

Regarding `C/C(Nc1cc(C)n(CC2CC2)n1)=C1/C(=O)Nc2cnc(-c3cnccc3C)cc21` [Example 189, (Z)-3-(1-((1-(cyclopropylmethyl)-5-methyl-1H-pyrazol-3-yl)amino)ethylidene)-5-(4-methylpyridin-3-yl)-1H-pyrrolo[2,3-c]pyridin-2(3H)-one], the inhibition at 1 µM was 73.5%, the inhibition at 10 µM is 76.9% and the IC50 is < 0.05 µM.

As for `C/C(Nc1cc(C)n(CC[C@@H](C)O)n1)=C1/C(=O)Nc2cnc(-c3cnccc3C)cc21` [Example 190, (R,Z)-3-(1-((1-(3-Hydroxybutyl)-5-methyl-1H-pyrazol-3-yl)amino)ethylidene)-5-(4-methylpyridin-3-yl)-1H-pyrrolo[2,3-c]pyridin-2(3H)-one], the inhibition at 1 µM came out at 52.4%, the inhibition at 10 µM came to 68.6% and the IC50 is > 0.5 µM.

Consider `C/C(Nc1cc(C)n(C)n1)=C1/C(=O)Nc2cnc(-c3c(C)cccc3F)cc21` [Example 191, (Z)-3-(1-((1,5-dimethyl-1H-pyrazol-3-yl)amino)ethylidene)-5-(2-fluoro-6-methylphenyl)-1H-pyrrolo[2,3-c]pyridin-2(3H)-one], for which the inhibition at 1 µM is 69.6%, the inhibition at 10 µM was 82.2% and the half-inhibitory concentration (IC50) was < 0.05 µM.

Turning to `C/C(Nc1cc2n(n1)CCOC2)=C1/C(=O)Nc2cnc(-c3c(C)cccc3F)cc21` [Example 192, (Z)-3-(1-((6,7-Dihydro-4H-pyrazolo[5,1-c][1,4]oxazin-2-yl)amino)ethylidene)-5-(2-fluoro-6-methylphenyl)-1H-pyrrolo[2,3-c]pyridin-2(3H)-one], the inhibition at 1 µM amounted to 62.1%, the inhibition at 10 µM is 68.3% and the IC50 was < 0.05 µM.

`C/C(Nc1cc2n(n1)CCOC2)=C1/C(=O)Nc2ccc(-c3cnccc3C)cc21` [Example 193, (Z)-3-(1-((6,7-Dihydro-4H-pyrazolo[5,1-c][1,4]oxazin-2-yl)amino)ethylidene)-5-(4-methylpyridin-3-yl)indolin-2-one]: the inhibition at 1 µM stood at 78.2%, the inhibition at 10 µM stood at 74.5% and the IC50 is < 0.05 µM.

As for `C/C(Nc1cc(C)n(C)n1)=C1/C(=O)Nc2ccc(-c3cnccc3C)cc21` [Example 194, (Z)-3-(1-((1,5-Dimethyl-1H-pyrazol-3-yl)amino)ethylidene)-5-(4-methylpyridin-3-yl)indolin-2-one], the inhibition at 1 µM is 68.6%, the inhibition at 10 µM is 66.6% and the concentration for half-maximal inhibition (IC50) was < 0.05 µM.

For the molecule `C/C(Nc1cc(C)n(CC[C@H](C)O)n1)=C1/C(=O)Nc2cnc(-c3cnccc3C)cc21` [Example 195, (S,Z)-3-(1-((1-(3-Hydroxybutyl)-5-methyl-1H-pyrazol-3-yl)amino)ethylidene)-5-(4-methylpyridin-3-yl)-1H-pyrrolo[2,3-c]pyridin-2(3H)-one], the inhibition at 1 µM came out at 25.1% and the inhibition at 10 µM came out at 61.1%.

For the molecule `C/C(Nc1ccn(CC[C@H](C)O)n1)=C1/C(=O)Nc2cnc(-c3cnccc3C)cc21` [Example 196, (S,Z)-3-(1-((1-(3-hydroxybutyl)-1H-pyrazol-3-yl)amino)ethylidene)-5-(4-methylpyridin-3-yl)-1H-pyrrolo[2,3-c]pyridin-2(3H)-one], the inhibition at 1 µM was 65%, the inhibition at 10 µM turned out to be 66.3% and the half-maximal inhibitory concentration (IC50) was < 0.05 µM.

Take `C/C(Nc1cc(C)n(C(C)(C)C#N)n1)=C1/C(=O)Nc2cnc(-c3cnccc3C)cc21` [Example 197, (Z)-2-Methyl-2-(5-methyl-3-((1-(5-(4-Methylpyridin-3-yl)-2-oxo-1H-pyrrolo[2,3-c]pyridin-3(2H)-ylidene)ethyl)amino)-1H-pyrazol-1-yl)propanenitrile]: the inhibition at 1 µM came to 69.8%, the inhibition at 10 µM was determined as 70.1% and the IC50 is < 0.05 µM.

Regarding `C/C(Nc1cc(C)n([C@H](C)C#N)n1)=C1/C(=O)Nc2cnc(-c3cnccc3C)cc21` [Example 198, (R,Z)-2-(5-Methyl-3-((1-(5-(4-methylpyridin-3-yl)-2-oxo-1H-pyrrolo[2,3-c]pyridin-3(2H)-ylidene)ethyl)amino)-1H-pyrazol-1-yl)propanenitrile], the inhibition at 1 µM turned out to be 73.8%, the inhibition at 10 µM amounted to 71.1% and the half-inhibitory concentration (IC50) is < 0.05 µM.

On to `C/C(Nc1cc(C)n([C@H](C)C#N)n1)=C1/C(=O)Nc2cnc(-c3c(C)cccc3F)cc21` [Example 199, (R,Z)-2-(3-((1-(5-(2-Fluoro-6-methylphenyl)-2-oxo-1H-pyrrolo[2,3-c]pyridin-3(2H)-ylidene)ethyl)amino)-5-methyl-1H-pyrazol-1-yl)propanenitrile], for which the inhibition at 1 µM came to 71.7% and the IC50 is < 0.05 µM.

Take `C/C(Nc1cc(C)n(CC(C)(C)O)n1)=C1/C(=O)Nc2cnc(-c3c(C)cccc3F)cc21` [Example 200, (Z)-5-(2-Fluoro-6-methylphenyl)-3-(1-((1-(2-hydroxy-2-methylpropyl)-5-methyl-1H-pyrazol-3-yl)amino)ethylidene)-1H-pyrrolo[2,3-c]pyridin-2(3H)-one]: the inhibition at 1 µM is 70.7%, the inhibition at 10 µM was 71.9% and the concentration for half-maximal inhibition (IC50) is < 0.05 µM.

The values are drawn from patent US20230009626A1 (ICHNOS SCIENCES S.A., priority 2018, published 2023).
